Test results published in BindingDB's records for doi:10.1016/j.bioorg.2016.07.013 (Shenyang Pharmaceutical University, 2016).

What was measured:
[1] = molecular target: Acetylcholinesterase (Homo sapiens, UniProt P22303); experiment: AChE and BuChE Inhibition Assay; conditions: pH 8
Procedure: (§1) The reaction mixture was consisted of 100 µL of the total volume.

[2] = molecular target: Cholinesterase (Homo sapiens, UniProt P06276); experiment: AChE and BuChE Inhibition Assay; conditions: pH 8
Procedure: as §1

Cholinesterase, sequence (P06276 whole entry): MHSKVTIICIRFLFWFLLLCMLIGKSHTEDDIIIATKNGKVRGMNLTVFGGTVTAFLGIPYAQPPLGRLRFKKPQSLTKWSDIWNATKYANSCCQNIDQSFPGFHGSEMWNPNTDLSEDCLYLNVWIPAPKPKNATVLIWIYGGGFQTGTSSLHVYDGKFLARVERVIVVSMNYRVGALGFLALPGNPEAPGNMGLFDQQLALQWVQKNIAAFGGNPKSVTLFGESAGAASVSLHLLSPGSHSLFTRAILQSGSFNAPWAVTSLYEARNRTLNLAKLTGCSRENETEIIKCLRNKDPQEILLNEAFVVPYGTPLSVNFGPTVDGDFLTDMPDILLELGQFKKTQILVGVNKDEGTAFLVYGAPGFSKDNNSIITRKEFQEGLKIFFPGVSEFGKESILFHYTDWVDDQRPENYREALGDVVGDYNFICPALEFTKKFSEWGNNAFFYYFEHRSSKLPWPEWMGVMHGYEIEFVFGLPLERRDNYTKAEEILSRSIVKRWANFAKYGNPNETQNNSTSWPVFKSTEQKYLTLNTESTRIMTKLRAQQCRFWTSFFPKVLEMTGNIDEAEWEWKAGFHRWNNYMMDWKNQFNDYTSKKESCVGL
Acetylcholinesterase, sequence (P22303 whole entry): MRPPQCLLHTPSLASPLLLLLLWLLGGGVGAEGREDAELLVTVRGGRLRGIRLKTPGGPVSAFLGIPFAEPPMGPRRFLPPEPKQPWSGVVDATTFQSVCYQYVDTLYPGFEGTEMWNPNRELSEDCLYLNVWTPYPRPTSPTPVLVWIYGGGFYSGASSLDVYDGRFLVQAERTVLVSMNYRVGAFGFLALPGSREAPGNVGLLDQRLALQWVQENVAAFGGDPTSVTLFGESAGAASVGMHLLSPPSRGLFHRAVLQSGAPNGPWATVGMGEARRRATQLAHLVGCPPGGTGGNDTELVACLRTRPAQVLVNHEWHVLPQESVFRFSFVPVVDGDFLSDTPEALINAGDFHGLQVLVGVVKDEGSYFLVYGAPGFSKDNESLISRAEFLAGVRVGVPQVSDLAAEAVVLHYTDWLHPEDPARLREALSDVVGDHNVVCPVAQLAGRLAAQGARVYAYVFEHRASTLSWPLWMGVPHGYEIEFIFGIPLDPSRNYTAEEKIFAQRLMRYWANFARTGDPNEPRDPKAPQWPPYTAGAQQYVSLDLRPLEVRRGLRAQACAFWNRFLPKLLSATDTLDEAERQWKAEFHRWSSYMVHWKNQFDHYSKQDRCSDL

SMILES	IC50 [1]	IC50 [2]
COc1ccc2cc(C(=O)Nc3ccc(CN4CCN(C)CC4)c(C(F)(F)F)c3)c(=O)oc2c1 [7-Methoxy-N-(4-((4-methylpiperazin-1-yl)methyl)-3-(trifluoromethyl)phenyl)-2-oxo-2H-chromene-3-carboxamide (9j)]	591 nM	
CCN1CCN(Cc2ccc(NC(=O)c3cc4cc([N+](=O)[O-])ccc4oc3=O)cc2Cl)CC1 [N-(3-chloro-4-((4-ethylpiperazin-1-yl)methyl)phenyl)-6-nitro-2-oxo-2H-chromene-3-carboxamide (9x)]	34 nM	
CN1CCN(Cc2ccc(NC(=O)c3cc4ccccc4oc3=O)cc2C(F)(F)F)CC1 [N-(4-((4-methylpiperazin-1-yl)methyl)-3-(trifluoromethyl)phenyl)-2-oxo-2H-chromene-3-carboxamide (9o)]	618 nM	
CCN1CCN(Cc2ccc(NC(=O)c3cc4ccccc4oc3=O)cc2Cl)CC1 [N-(3-chloro-4-((4-ethylpiperazin-1-yl)methyl)phenyl)-2-oxo-2H-chromene-3-carboxamide (9l)]	1300 nM	1590 nM
CCN1CCN(Cc2ccc(NC(=O)c3cc4cc(Br)ccc4oc3=O)cc2Cl)CC1 [6-Bromo-N-(3-chloro-4-((4-ethylpiperazin-1-yl)methyl)phenyl)-2-oxo-2H-chromene-3-carboxamide (9t)]	120 nM	
COc1cccc2cc(C(=O)Nc3ccc(CN4CCN(C)CC4)c(Cl)c3)c(=O)oc12 [N-(3-chloro-4-((4-methylpiperazin-1-yl)methyl)phenyl)-8-methoxy-2-oxo-2H-chromene-3-carboxamide (9b)]	1220 nM	1770 nM
CCN1CCN(Cc2ccc(NC(=O)c3cc4cccc(OC)c4oc3=O)cc2Cl)CC1 [N-(3-chloro-4-((4-ethylpiperazin-1-yl)methyl)phenyl)-8-methoxy-2-oxo-2H-chromene-3-carboxamide (9a)]	195 nM	
CN1CCN(Cc2ccc(NC(=O)c3cc4cc([N+](=O)[O-])ccc4oc3=O)cc2Cl)CC1 [N-(3-chloro-4-((4-methylpiperazin-1-yl)methyl)phenyl)-6-nitro-2-oxo-2H-chromene-3-carboxamide (9y)]	807 nM	1880 nM
COc1cccc2cc(C(=O)Nc3ccc(CN4CCN(C)CC4)c(C(F)(F)F)c3)c(=O)oc12 [8-Methoxy-N-(4-((4-methylpiperazin-1-yl)methyl)-3-(trifluoromethyl)phenyl)-2-oxo-2H-chromene-3-carboxamide (9d)]	1450 nM	
CCN1CCN(Cc2ccc(NC(=O)c3cc4ccc(OC)cc4oc3=O)cc2Cl)CC1 [N-(3-chloro-4-((4-ethylpiperazin-1-yl)methyl)phenyl)-7-methoxy-2-oxo-2H-chromene-3-carboxamide (9f)]	122 nM	
CN1CCN(Cc2ccc(NC(=O)c3cc4cc(Cl)ccc4oc3=O)cc2Cl)CC1 [6-Chloro-N-(3-chloro-4-((4-methylpiperazin-1-yl)methyl)phenyl)-2-oxo-2H-chromene-3-carboxamide (9q)]	841 nM	1790 nM
CCN1CCN(Cc2ccc(NC(=O)c3cc4cc(Cl)ccc4oc3=O)cc2Cl)CC1 [6-Chloro-N-(3-chloro-4-((4-ethylpiperazin-1-yl)methyl)phenyl)-2-oxo-2H-chromene-3-carboxamide (9p)]	222 nM	
CN1CCN(Cc2ccc(NC(=O)c3cc4ccccc4oc3=O)cc2Cl)CC1 [N-(3-chloro-4-((4-methylpiperazin-1-yl)methyl)phenyl)-2-oxo-2H-chromene-3-carboxamide (9k)]	1300 nM	1970 nM
COc1ccc2cc(C(=O)Nc3ccc(CN4CCN(C)CC4)c(Cl)c3)c(=O)oc2c1 [N-(3-chloro-4-((4-methylpiperazin-1-yl)methyl)phenyl)-7-methoxy-2-oxo-2H-chromene-3-carboxamide (9g)]	1540 nM	1680 nM
CN1CCN(Cc2ccc(NC(=O)c3cc4cc(Br)ccc4oc3=O)cc2Cl)CC1 [6-Bromo-N-(3-chloro-4-((4-methylpiperazin-1-yl)methyl)phenyl)-2-oxo-2H-chromene-3-carboxamide (9u)]	330 nM	1890 nM
